Test system: Human recombinant GST-PI3K
Test: PI3K induced-lipid phosphorylation scintillation proximity assay (neomycin-coated SPA beads)
Format: biochemical
Details: amount necessary to achieve 50% inhibition of PI3K; 120 min at room temperature
Source text: The efficacy of compounds of the invention in inhibiting the PI3K induced-lipid phosphorylation may be tested in the following binding assay. The assay combines the scintillation proximity assay technology (SPA, Amersham) with the capacity of neomycin (a polycationic antibiotic) to bind phospholipids with high affinity and specificity. The Scintillation Proximity Assay is based on the properties of weakly emitting isotopes (such as ^3H, ^125I, ^33P). Coating SPA beads with neomycin allows the detection of phosphorylated lipid substrates after incubation with recombinant PI3K and radioactive ATP in the same well, by capturing the radioactive phospholipids to the SPA beads through their specific binding to neomycin. To a 96 wells MTP containing 10 μl of the test compound of Formula (I) (solubilized in 10% DMSO; to yield a concentration of 100, 25, 5.0, 1.25, 0.312, 0.078, 0.0195, 0.00488, 0.00122 and 0.0003 μM of the test compound), the following assay components are added: 1) 10 μL of lipid micelles 2) […] of Kinase buffer ([^33P]γATP162 μM/300 nCi, MgCl2 2.5 mM, DTT 2.5 mM, Na3VO4 25 μM in Hepes 40 mM, pH 7.4) and 3) 10 μL (100 ng) of Human recombinant GST-PI3K (in Hepes 40 mM, pH 7.4, ethylenglycol 4%). After incubation at room temperature for 120 minutes, with gentle agitation, the reaction is stopped by addition of 200 μL of a solution containing 250 μg of neomycin-coated PVT SPA beads, ATP 60 mM and EDTA 6.2 mM in PBS. The assay is further incubated at room temperature for 60 minutes with gentle agitation to allow binding of phospholipids to neomycin-SPA beads. After precipitation of the neomycin-coated PVT SPA beads for 5 minutes at 1500×g, radioactive PtdIns(3)P is quantified by scintillation counting in a Wallac MicroBeta™ plate counter. The values indicated in Table I below refer to the IC50 (μM) with respect to PI3K, i.e. the amount necessary to achieve 50% inhibition of said target. Said values show a considerable inhibitory potency of pyridopyrimidine compounds with regard to PI3K.

| Structure (SMILES) | IC50 |
| --- | --- |
| CN(C)CCN(C)c1cc(C(=O)O)nc2c(-c3cc(F)ccc3O)nc(N3CCOCC3)nc12 [Example 32, 8-[[2-(Dimethylamino)ethyl](methyl)amino]-4-(5-fluoro-2-hydroxyphenyl)-2-morpholin-4-ylpyrido[3,2-d]pyrimidine-6-carboxylic acid] | 564 nM |
| COCCN(C)c1cc(C(=O)O)nc2c(-c3cccc(F)c3O)nc(N3CCOCC3)nc12 [Example 33, 4-(3-Fluoro-2-hydroxyphenyl)-8-[(2-methoxyethyl)(methyl)amino]-2-morpholin-4-ylpyrido[3,2-d]pyrimidine-6-carboxylic acid] | 9 nM |
| CNc1cc(C(=O)O)nc2c(-c3cccc(F)c3O)nc(N3CCOCC3)nc12 [Example 35, 4-(3-Fluoro-2-hydroxyphenyl)-8-(methylamino)-2-morpholin-4-ylpyrido[3,2-d]pyrimidine-6-carboxylic acid] | 48 nM |
| COCCNc1cc(C(=O)O)nc2c(-c3cccc(F)c3O)nc(N3CCOCC3)nc12 [Example 36, 4-(3-Fluoro-2-hydroxyphenyl)-8-[(2-methoxyethyl)amino]-2-morpholin-4-ylpyrido[3,2-d]pyrimidine-6-carboxylic acid] | 18 nM |
| CN(CCO)c1cc(C(=O)O)nc2c(-c3cccc(F)c3O)nc(N3CCOCC3)nc12 [Example 37, 4-(3-Fluoro-2-hydroxyphenyl)-8-[(2-hydroxyethyl)(methyl)amino]-2-morpholin-4-ylpyrido[3,2-d]pyrimidine-6-carboxylic acid] | 10 nM |
| O=C(O)c1cc(NCCO)c2nc(N3CCOCC3)nc(-c3cccc(F)c3O)c2n1 [Example 38, 4-(3-Fluoro-2-hydroxyphenyl)-8-[(2-hydroxyethyl)amino]-2-morpholin-4-ylpyrido[3,2-d]pyrimidine-6-carboxylic acid] | 43 nM |
| CS(=O)(=O)c1cc(C(=O)O)nc2c(-c3cccc(F)c3O)nc(N3CCOCC3)nc12 [Example 39] | 26 nM |
| CNc1cc(C(=O)O)nc2c(-c3cccc(O)c3)nc(N3CCOCC3)nc12 [Example 40, 4-(3-Hydroxyphenyl)-8-(methylamino)-2-morpholin-4-ylpyrido[3,2-d]pyrimidine-6-carboxylic acid] | 144 nM |
| O=C(O)c1ccc2nc(N3CCOCC3)nc(-c3cccc(O)c3)c2n1 [Example 41, 4-(3-Hydroxyphenyl)-2-morpholin-4-ylpyrido[3,2-d]pyrimidine-6-carboxylic acid] | 63 nM |
| CN(C)c1cc(C(=O)O)nc2c(-c3ccccc3O)nc(N3CCOCC3)nc12 [Example 42, 8-(Dimethylamino)-4-(2-hydroxyphenyl)-2-morpholin-4-ylpyrido[3,2-d]pyrimidine-6-carboxylic acid] | 23 nM |
| CN(C)CCN(C)c1cc(C(=O)O)nc2c(-c3ccccc3O)nc(N3CCOCC3)nc12 [Example 43, 8-[[2-(Dimethylamino)ethyl](methyl)amino]-4-(2-hydroxyphenyl)-2-morpholin-4-ylpyrido[3,2-d]pyrimidine-6-carboxylic acid] | 459 nM |
| O=C(O)c1cc(NCCO)c2nc(N3CCOCC3)nc(-c3ccccc3O)c2n1 [Example 44, 8-[(2-Hydroxyethyl)amino]-4-(2-hydroxyphenyl)-2-morpholin-4-ylpyrido[3,2-d]pyrimidine-6-carboxylic acid] | 82 nM |
| CS(=O)(=O)c1cc(C(=O)O)nc2c(-c3ccc(O)c(F)c3)nc(N3CCOCC3)nc12 [Example 45, 4-(3-Fluoro-4-hydroxyphenyl)-8-(methylsulfonyl)-2-morpholin-4-ylpyrido[3,2-d]pyrimidine-6-carboxylic acid] | 335 nM |
| COCCNc1cc(C(=O)O)nc2c(-c3ccc(CO)cc3)nc(N3CCOCC3)nc12 [Example 46, 4-[4-(Hydroxymethyl)phenyl]-8-[(2-methoxyethyl)amino]-2-morpholin-4-ylpyrido[3,2-d]pyrimidine-6-carboxylic acid] | 346 nM |
| COCCN(C)c1cc(C(=O)O)nc2c(-c3cccc(CO)c3)nc(N3CCOCC3)nc12 [Example 47, 4-[3-(Hydroxymethyl)phenyl]-8-[(2-methoxyethyl)(methyl)amino]-2-morpholin-4-ylpyrido[3,2-d]pyrimidine-6-carboxylic acid] | 8 nM |
| O=C(O)c1cc(NCCO)c2nc(N3CCOCC3)nc(-c3cccc(CO)c3)c2n1 [Example 48, 8-[(2-Hydroxyethyl)amino]-4-[3-(hydroxymethyl)phenyl]-2-morpholin-4-ylpyrido[3,2-d]pyrimidine-6-carboxylic acid] | 27 nM |
| CN(C)c1cc(C(=O)O)nc2c(-c3ccc(F)c(CO)c3)nc(N3CCOCC3)nc12 [Example 49, 8-(Dimethylamino)-4-[4-fluoro-3-(hydroxymethyl)phenyl]-2-morpholin-4-ylpyrido[3,2-d]pyrimidine-6-carboxylic acid] | 329 nM |
| CN(CCO)c1cc(C(=O)O)nc2c(-c3ccc(F)c(CO)c3)nc(N3CCOCC3)nc12 [Example 50, 4-[4-Fluoro-3-(hydroxymethyl)phenyl]-8-[(2-hydroxyethyl)(methyl)amino]-2-morpholin-4-ylpyrido[3,2-d]pyrimidine-6-carboxylic acid] | 303 nM |
| COCCN(C)c1cc(C(=O)O)nc2c(-c3ccc(F)cc3O)nc(N3CCOCC3)nc12 [Example 51, 4-(4-Fluoro-2-hydroxyphenyl)-8-[(2-methoxyethyl)(methyl)amino]-2-morpholin-4-ylpyrido[3,2-d]pyrimidine-6-carboxylic acid] | 62 nM |
| CN(C)c1cc(C(=O)O)nc2c(-c3ccc(F)cc3O)nc(N3CCOCC3)nc12 [Example 52, 8-(Dimethylamino)-4-(4-fluoro-2-hydroxyphenyl)-2-morpholin-4-ylpyrido[3,2-d]pyrimidine-6-carboxylic acid] | 83 nM |
| CNc1cc(C(=O)O)nc2c(-c3ccc(F)cc3O)nc(N3CCOCC3)nc12 [Example 53, 4-(4-Fluoro-2-hydroxyphenyl)-8-(methylamino)-2-morpholin-4-ylpyrido[3,2-d]pyrimidine-6-carboxylic acid] | 412 nM |
| COCCNc1cc(C(=O)O)nc2c(-c3ccc(F)cc3O)nc(N3CCOCC3)nc12 [Example 54, 4-(4-Fluoro-2-hydroxyphenyl)-8-[(2-methoxyethyl)amino]-2-morpholin-4-ylpyrido[3,2-d]pyrimidine-6-carboxylic acid] | 89 nM |
| CS(=O)(=O)c1cc(C(=O)O)nc2c(-c3cc(F)ccc3O)nc(N3CCOCC3)nc12 [Example 55, 4-(5-Fluoro-2-hydroxyphenyl)-8-(methylsulfonyl)-2-morpholin-4-ylpyrido[3,2-d]pyrimidine-6-carboxylic acid] | 139 nM |
| CS(=O)(=O)c1cc(C(=O)O)nc2c(-c3cc(O)cc(F)c3)nc(N3CCOCC3)nc12 [Example 56, 4-(3-Fluoro-5-hydroxyphenyl)-8-(methylsulfonyl)-2-morpholin-4-ylpyrido[3,2-d]pyrimidine-6-carboxylic acid] | 15 nM |
| CN(C)CCN(C)c1cc(C(=O)O)nc2c(-c3cccc4[nH]ccc34)nc(N3CCOCC3)nc12 [Example 57, 8-[[2-(Dimethylamino)ethyl](methyl)amino]-4-(1H-indol-4-yl)-2-morpholin-4-ylpyrido[3,2-d]pyrimidine-6-carboxylic acid] | 137 nM |
| Cc1cc(O)ccc1-c1nc(N2CCOCC2)nc2c(N(C)CCO)cc(C(=O)O)nc12 [Example 58, 8-[(2-Hydroxyethyl)(methyl)amino]-4-(4-hydroxy-2-methylphenyl)-2-morpholin-4-ylpyrido[3,2-d]pyrimidine-6-carboxylic acid] | 936 nM |
| CN(CCO)c1cc(C(=O)O)nc2c(-c3ccc(F)cc3O)nc(N3CCOCC3)nc12 [Example 59, 4-(4-Fluoro-2-hydroxyphenyl)-8-[(2-hydroxyethyl)(methyl)amino]-2-morpholin-4-ylpyrido[3,2-d]pyrimidine-6-carboxylic acid] | 220 nM |
| CC(=O)N1CCN(c2cc(C(=O)O)nc3c(-c4cccc(O)c4)nc(N4CCOCC4)nc23)CC1 [Example 60, 8-(4-Acetylpiperazin-1-yl)-4-(3-hydroxyphenyl)-2-morpholin-4-ylpyrido[3,2-d]pyrimidine-6-carboxylic acid] | 80 nM |
| CS(=O)(=O)N1CCN(c2cc(C(=O)O)nc3c(-c4cccc(O)c4)nc(N4CCOCC4)nc23)CC1 [Example 61, 4-(3-Hydroxyphenyl)-8-[4-(methylsulfonyl)piperazin-1-yl]-2-morpholin-4-ylpyrido[3,2-d]pyrimidine-6-carboxylic acid] | 15 nM |
| Cc1cc(C(=O)O)nc2c(-c3cccc(O)c3)nc(N3CCOCC3)nc12 [Example 62, 4-(3-Hydroxyphenyl)-8-methyl-2-morpholin-4-ylpyrido[3,2-d]pyrimidine-6-carboxylic acid] | 225 nM |
